In ChEMBL document CHEMBL1135518 (J Med Chem, 2002) one finds IC50, Ki and Increase data, which are given here for four compounds.

pIC50, pKi: −log10 of the molar value. A value given as a limit tells only on which side of the number the result lay.

The target of experiment [1] is 5-hydroxytryptamine receptor 2A (Rattus norvegicus, UniProt P14842). Nature of the experiment: The binding affinity at 5-hydroxytryptamine 2A receptor was determined using [3H]ketanserin.
In experiment [2] the target is T1, Adrenergic receptor alpha-2 (Rattus norvegicus, UniProt P22086+P19328+P22909).
T1 sequence (P22086 whole entry): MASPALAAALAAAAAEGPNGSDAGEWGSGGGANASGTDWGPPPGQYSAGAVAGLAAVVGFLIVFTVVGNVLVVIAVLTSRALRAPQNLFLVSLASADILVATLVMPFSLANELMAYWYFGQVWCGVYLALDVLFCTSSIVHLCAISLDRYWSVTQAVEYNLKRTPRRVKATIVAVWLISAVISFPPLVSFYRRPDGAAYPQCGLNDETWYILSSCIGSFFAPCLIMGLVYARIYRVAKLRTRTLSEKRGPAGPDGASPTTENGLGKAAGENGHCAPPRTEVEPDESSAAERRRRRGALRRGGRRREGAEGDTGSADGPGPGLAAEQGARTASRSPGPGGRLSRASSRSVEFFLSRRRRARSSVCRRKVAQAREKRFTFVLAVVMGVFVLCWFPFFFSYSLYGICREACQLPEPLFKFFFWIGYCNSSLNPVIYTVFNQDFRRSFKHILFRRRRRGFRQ
T1 sequence (P19328 whole entry): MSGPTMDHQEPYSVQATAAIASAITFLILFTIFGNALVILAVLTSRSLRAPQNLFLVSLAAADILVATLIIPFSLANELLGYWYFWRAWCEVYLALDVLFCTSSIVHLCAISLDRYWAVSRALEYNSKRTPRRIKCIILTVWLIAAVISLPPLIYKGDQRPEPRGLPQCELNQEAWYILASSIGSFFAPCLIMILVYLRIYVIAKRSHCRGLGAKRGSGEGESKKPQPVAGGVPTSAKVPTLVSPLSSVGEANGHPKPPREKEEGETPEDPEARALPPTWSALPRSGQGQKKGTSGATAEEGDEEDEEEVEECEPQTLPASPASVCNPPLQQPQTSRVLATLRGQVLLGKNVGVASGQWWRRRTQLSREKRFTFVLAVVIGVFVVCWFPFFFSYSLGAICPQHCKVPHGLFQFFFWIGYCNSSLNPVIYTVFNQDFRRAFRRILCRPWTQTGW
T1 sequence (P22909 whole entry): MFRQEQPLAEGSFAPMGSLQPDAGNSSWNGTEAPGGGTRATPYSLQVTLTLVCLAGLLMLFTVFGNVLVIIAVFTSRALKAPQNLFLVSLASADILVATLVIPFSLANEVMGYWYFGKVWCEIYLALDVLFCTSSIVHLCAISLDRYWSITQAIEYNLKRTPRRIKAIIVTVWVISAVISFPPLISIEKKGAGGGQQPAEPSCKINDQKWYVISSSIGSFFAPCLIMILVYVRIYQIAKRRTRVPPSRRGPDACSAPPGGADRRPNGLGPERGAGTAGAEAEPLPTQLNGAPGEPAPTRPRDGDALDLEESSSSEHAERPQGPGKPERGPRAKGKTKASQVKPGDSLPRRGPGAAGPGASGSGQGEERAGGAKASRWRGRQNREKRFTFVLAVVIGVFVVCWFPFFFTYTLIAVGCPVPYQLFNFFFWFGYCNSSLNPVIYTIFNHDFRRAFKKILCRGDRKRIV
Nature of the experiment: The binding affinity at the Alpha-2 adrenergic receptor determined using [3H]RX-821002; Not tested. In kind it is protein assay.

The target of experiment [3] is T2, 5-hydroxytryptamine receptor 2C (Rattus norvegicus, UniProt P08909).
T2 sequence (P08909 whole entry): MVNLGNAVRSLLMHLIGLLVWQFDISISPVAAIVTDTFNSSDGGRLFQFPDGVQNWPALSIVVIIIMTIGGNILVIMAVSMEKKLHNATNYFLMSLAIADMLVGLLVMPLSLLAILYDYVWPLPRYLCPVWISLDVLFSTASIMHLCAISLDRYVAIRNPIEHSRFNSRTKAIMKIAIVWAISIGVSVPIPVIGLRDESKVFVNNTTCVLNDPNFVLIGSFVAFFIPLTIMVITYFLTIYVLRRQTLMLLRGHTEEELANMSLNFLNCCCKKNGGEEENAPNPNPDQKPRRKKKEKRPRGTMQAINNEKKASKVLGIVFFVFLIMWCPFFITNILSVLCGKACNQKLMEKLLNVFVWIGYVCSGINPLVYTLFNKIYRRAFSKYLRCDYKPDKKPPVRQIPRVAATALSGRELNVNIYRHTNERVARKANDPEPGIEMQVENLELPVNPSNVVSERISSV
The experiment can be described thus: The binding affinity at 5-hydroxytryptamine 2C receptor was determined using [3H]mesulergine.

In experiment [4] the target is T3, Adrenergic receptor alpha-1 (Rattus norvegicus, UniProt P15823+P23944+P43140).
T3 sequence (P15823 whole entry): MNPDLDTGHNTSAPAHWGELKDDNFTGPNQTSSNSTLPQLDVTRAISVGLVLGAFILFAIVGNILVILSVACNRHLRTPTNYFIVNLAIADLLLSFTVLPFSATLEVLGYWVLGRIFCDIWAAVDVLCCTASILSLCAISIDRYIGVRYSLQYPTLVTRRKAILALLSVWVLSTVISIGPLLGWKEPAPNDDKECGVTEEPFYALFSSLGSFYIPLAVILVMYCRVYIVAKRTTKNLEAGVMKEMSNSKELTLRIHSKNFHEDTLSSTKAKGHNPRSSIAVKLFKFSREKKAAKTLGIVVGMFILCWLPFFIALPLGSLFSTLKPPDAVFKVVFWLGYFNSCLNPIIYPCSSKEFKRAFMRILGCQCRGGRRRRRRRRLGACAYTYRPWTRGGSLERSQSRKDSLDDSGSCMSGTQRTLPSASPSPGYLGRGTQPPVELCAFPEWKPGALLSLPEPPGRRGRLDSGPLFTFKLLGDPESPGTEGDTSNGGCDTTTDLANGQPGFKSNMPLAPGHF
T3 sequence (P23944 whole entry): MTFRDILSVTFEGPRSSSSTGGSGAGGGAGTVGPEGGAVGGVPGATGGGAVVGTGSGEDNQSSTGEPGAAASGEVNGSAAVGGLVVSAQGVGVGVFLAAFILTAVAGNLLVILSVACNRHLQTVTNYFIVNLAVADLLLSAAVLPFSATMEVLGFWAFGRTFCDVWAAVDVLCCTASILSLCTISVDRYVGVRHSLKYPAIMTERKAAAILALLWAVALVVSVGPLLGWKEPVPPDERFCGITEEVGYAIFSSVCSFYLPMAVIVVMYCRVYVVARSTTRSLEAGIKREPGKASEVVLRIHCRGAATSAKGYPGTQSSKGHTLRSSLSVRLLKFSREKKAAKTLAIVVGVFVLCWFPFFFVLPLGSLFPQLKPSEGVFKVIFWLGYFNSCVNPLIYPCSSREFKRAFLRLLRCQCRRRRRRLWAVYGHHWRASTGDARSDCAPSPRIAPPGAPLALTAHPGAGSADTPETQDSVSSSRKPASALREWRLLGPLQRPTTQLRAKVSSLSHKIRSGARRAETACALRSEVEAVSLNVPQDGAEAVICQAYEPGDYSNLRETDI
T3 sequence (P43140 whole entry): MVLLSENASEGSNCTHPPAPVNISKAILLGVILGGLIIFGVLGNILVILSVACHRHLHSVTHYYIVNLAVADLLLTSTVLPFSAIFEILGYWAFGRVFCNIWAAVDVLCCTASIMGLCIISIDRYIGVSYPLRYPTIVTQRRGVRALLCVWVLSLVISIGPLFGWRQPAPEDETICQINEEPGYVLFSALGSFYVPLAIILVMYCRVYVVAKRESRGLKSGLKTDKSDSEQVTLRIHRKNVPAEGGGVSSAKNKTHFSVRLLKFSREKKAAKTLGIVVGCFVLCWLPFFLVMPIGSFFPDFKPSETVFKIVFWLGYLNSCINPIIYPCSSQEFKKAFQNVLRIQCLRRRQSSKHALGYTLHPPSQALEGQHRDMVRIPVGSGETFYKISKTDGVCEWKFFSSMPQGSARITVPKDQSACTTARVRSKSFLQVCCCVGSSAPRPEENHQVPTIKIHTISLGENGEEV
Nature of the experiment: The binding affinity at Alpha-1 adrenergic receptor determined using [3H]prazosin. In kind it is protein assay.

Experiment [5] can be described thus: The binding affinity at the Histamine H1 receptor determined using [3H]pyrilamine. More on the design: species or system Cavia porcellus.
Experiment [6] addresses Norepinephrine transporter (Rattus norvegicus, UniProt Q9WTR4). Nature of the experiment: The binding affinity at the Norepinephrine transporter reuptake sites determined using competition binding assay.
Experiment [7] has as its system Rattus norvegicus. Nature of the experiment: The increase in the extracellular levels of DOPAC in the rat ventral hippocampus at a dose of 5.0 mg/kg sc measured by in vivo microdialysis. In kind it is functional. The settings on record: route subcutaneous.
Experiment [8] concerns Rattus norvegicus. The experiment can be described thus: The increase in the extracellular levels of 5-HT in the rat ventral hippocampus at a dose of 5.0 mg/kg sc measured by in vivo microdialysis. To be noted: route subcutaneous. In kind it is functional.
In experiment [9] the target is Sodium-dependent serotonin transporter (Rattus norvegicus, UniProt P31652). Nature of the experiment: The binding affinity at the 5-HT reuptake sites determined using competition binding assay.
Experiment [10] deals with T4, D(4) dopamine receptor (Homo sapiens, UniProt P21917).
T4 sequence (P21917 whole entry): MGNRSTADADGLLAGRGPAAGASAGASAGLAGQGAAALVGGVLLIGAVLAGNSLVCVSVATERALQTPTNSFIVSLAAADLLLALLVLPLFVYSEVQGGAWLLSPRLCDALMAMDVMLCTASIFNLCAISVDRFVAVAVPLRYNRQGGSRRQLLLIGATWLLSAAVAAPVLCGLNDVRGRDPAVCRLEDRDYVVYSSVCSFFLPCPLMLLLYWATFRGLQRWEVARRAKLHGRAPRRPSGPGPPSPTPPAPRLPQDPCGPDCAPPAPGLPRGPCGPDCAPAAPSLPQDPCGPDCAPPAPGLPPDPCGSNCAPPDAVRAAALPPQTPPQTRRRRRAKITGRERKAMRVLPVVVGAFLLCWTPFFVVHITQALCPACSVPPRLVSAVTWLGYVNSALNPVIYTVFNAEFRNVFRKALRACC
The experiment can be described thus: The binding affinity at the Dopamine receptor D4 determined using [3H]YM-09151-2.

Chain of 5-hydroxytryptamine receptor 2A (P14842 whole entry): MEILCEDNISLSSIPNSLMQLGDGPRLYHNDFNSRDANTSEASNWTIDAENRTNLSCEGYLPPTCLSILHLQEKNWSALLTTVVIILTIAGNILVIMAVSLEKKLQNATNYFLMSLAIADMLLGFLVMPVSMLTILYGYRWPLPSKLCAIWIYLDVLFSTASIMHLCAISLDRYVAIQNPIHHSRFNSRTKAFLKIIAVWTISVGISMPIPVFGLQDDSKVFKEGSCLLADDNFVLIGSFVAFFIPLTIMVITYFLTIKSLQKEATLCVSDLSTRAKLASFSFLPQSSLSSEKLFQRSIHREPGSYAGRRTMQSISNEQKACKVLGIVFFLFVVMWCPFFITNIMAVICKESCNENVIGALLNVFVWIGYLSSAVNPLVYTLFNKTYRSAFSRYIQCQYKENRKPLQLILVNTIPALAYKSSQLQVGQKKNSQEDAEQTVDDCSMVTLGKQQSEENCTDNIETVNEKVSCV
Chain of Norepinephrine transporter (Q9WTR4 whole entry): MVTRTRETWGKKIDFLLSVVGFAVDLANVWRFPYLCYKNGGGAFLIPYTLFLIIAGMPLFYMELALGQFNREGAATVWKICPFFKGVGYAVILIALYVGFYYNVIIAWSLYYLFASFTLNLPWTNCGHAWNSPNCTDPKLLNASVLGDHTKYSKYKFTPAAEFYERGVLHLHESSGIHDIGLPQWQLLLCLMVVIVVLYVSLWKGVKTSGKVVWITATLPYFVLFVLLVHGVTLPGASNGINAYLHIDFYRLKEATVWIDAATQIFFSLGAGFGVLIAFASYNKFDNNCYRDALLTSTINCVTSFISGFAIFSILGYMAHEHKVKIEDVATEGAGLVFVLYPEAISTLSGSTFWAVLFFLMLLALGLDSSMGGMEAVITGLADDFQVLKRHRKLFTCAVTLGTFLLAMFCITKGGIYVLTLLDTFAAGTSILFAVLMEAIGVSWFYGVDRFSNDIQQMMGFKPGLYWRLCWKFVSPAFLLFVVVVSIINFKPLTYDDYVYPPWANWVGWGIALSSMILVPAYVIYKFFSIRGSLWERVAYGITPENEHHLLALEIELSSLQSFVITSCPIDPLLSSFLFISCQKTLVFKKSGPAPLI
Chain of Sodium-dependent serotonin transporter (P31652 whole entry): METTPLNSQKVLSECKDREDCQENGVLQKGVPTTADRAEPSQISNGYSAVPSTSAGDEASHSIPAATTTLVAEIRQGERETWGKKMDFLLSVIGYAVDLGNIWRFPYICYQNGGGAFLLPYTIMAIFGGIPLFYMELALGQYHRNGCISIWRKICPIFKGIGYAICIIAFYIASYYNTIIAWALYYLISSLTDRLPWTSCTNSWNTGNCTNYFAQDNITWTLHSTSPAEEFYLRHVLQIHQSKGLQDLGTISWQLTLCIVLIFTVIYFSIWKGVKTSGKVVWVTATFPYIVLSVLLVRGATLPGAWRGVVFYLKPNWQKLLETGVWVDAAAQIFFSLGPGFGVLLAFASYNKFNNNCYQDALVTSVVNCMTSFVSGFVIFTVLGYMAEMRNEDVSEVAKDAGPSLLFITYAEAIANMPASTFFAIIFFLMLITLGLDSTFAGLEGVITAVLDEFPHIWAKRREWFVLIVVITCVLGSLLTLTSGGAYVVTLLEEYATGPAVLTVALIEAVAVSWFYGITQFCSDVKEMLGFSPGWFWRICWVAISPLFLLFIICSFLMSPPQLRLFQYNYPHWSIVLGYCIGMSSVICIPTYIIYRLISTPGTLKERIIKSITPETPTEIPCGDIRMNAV

The compound `CN1CCN2c3c(cccc3OS(=O)(=O)C(F)(F)F)Cc3ccccc3C2C1` (racemic) showed a pIC50 in [1] of 6.56. Also, the IC50 in [2] stood at 1000 nM.
`CN1CCN2c3c(O)cccc3Cc3ccccc3C2C1` (racemic): the pKi was 8.70 in [3] and 7.68 in experiment [5]. Further, the Ki in experiment [4] was 1000 nM. For the same compound, the pIC50 in [1] is 7.92. The compound further returned an IC50 in [2] of 1000 nM.
Turning to `CN1CCN2c3ccccc3Cc3ccccc3C2C1` (racemic) [MIANSERIN], in experiment [5], the pKi was 8.38. In experiment [6], this compound had a pIC50 of 7.66. The Increase in [7] came to 160%.
With `CN1CCN2c3ncccc3Cc3ccccc3C2C1` (racemic) [MIRTAZAPINE], the negative logarithm of the Ki (pKi) in [3] is 8.26; in experiment [5], 8.29; in [10], below 7.60. In addition, the Ki in experiment [4] was 1050 nM. Besides, the Increase in [8] is listed as 180%; in [7], 200%. The figures for the pIC50 in experiment [6] and in experiment [9] were 6.59 and below 7.00, respectively.
